Data on 3 compounds can be found in patent US7851444B2 (priority 2002, dated 2010).

In assay [1] the target is T1, human noradrenaline transporter (hNET) (Homo sapiens, UniProt P23975).
T1 construct: expressed in transfected cells; host or cells: COS-7 cells (ATCC), transient transfection with metafectene
Description: cell-based.

For assay [2], the target named is T1, human noradrenaline transporter (hNET). In words: biochemical. Type of assay: binding.

T1 sequence (P23975 whole entry): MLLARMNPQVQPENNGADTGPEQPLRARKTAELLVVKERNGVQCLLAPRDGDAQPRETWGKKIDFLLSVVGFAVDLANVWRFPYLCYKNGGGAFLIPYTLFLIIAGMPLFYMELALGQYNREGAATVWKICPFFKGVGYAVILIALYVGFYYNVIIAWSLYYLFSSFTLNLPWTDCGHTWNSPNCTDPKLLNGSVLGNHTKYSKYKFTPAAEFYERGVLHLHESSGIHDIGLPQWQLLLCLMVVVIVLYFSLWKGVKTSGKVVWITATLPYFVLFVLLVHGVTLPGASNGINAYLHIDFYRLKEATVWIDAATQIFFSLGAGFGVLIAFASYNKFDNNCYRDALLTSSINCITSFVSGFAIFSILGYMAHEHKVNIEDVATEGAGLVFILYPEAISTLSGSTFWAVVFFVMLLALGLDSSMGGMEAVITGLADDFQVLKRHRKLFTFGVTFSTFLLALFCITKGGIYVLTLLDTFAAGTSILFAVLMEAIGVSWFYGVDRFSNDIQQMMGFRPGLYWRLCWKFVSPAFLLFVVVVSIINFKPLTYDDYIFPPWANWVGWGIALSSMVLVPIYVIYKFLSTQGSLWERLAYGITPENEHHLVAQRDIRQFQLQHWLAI

With `COc1ccc(C[C@@H]2NC(=O)CNC(=O)[C@@H]3CSSC[C@H](NC(=O)[C@H](CC(C)C)NC(=O)[C@H](CCCCN)NC2=O)C(=O)N[C@@H](Cc2c[nH]cn2)C(=O)N2C[C@H](O)C[C@H]2C(=O)N[C@H](C(N)=O)CSSC[C@H](NC(=O)[C@@H](NC(=O)CNC(=O)[C@@H]2CCC(=O)N2)C(C)C)C(=O)N3)cc1` [SEQ ID NO. 6, Xaa1 Gly Val Cys Cys Gly Xaa4 Lys Leu Cys His Xaa3 Cys], the figures for the IC50 in assay [1] and in assay [2] were 214 nM and 1150 nM, respectively. In assay [2], `CC(C)C[C@@H]1NC(=O)[C@H](CCCCN)NC(=O)[C@H](Cc2ccc(O)cc2)NC(=O)CNC(=O)[C@@H]2CSSC[C@H](NC1=O)C(=O)N[C@@H](Cc1c[nH]cn1)C(=O)N1C[C@H](O)C[C@H]1C(=O)N[C@H](C(=O)O)CSSC[C@H](NC(=O)[C@@H](NC(=O)CNC(=O)[C@@H]1CCC(=O)N1)C(C)C)C(=O)N2` [SEQ ID NO. 9, Xaa1 Gly Val Cys Cys Gly Tyr Lys Leu Cys His Xaa3 Cys —OH] gave an IC50 of 8320 nM. For `CC(C)C[C@@H]1NC(=O)[C@H](CCCCN)NC(=O)[C@H](Cc2ccc(O)cc2)NC(=O)CNC(=O)[C@@H]2CSSC[C@H](NC1=O)C(=O)N[C@@H](Cc1c[nH]cn1)C(=O)N1C[C@H](O)C[C@H]1C(=O)N[C@@H](C(N)=O)CSSC[C@H](NC(=O)[C@@H](NC(=O)CNC(=O)[C@@H]1CCC(=O)N1)C(C)C)C(=O)N2` [SEQ ID NO. 5, Xaa1 Gly Val Cys Cys Gly Tyr Lys Leu Cys His Xaa3 Xaa5], the IC50 in assay [1] was 575 nM; in assay [2], 4170 nM.
